Test [1] has as its target human CB1 receptors (Homo sapiens (Human), UniProt P21554). Kind of test: functional cAMP assay, CB1. Format: cell-based. How it is done: (§1) CHO cells expressing human CB1 or CB2 receptors are seeded 17-24 hours prior to the experiment 50.000 cells per well in a black 96 well plate with flat clear bottom (Corning Costar #3904) in DMEM (Invitrogen No. 31331), 1×HT supplement, with 10% fetal calf serum and incubated at 5% CO2 and 37° C. in a humidified incubator. The growth medium was exchanged with Krebs Ringer Bicarbonate buffer with 1 mM IBMX and incubated at 30° C. for 30 min. Compounds were added to a final assay volume of 100 μl and incubated for 30 min at 30° C. Using the cAMP-Nano-TRF detection kit the assay (Roche Diagnostics) was stopped by the addition of 50 μl lysis reagent (Tris, NaCl, 1.5% Triton X100, 2.5% NP40, 10% NaN3) and 50 μl detection solutions (20 μM mAb Alexa700-cAMP 1:1, and 48 μM Ruthenium-2-AHA-cAMP) and shaken for 2 h at room temperature. The time-resolved energy transfer is measured by a TRF reader (Evotec Technologies GmbH), equipped with a ND:YAG laser as excitation source. The plate is measured twice with the excitation at 355 nm and at the emission with a delay of 100 ns and a gate of 100 ns, total exposure time 10s at 730 (bandwidth 30 nm) or 645 nm (bandwidth 75 nm), respectively. The FRET signal is calculated as follows: FRET=T730-Alexa730-P(T645-B645) with P=Ru730-B730/Ru645-B645, where T730 is the test well measured at […], T645 is the test well measured at 645 nm, B730 and B645 are the buffer controls at 730 nm and 645 nm, respectively. cAMP content is determined from the function of a standard curve spanning from 10 μM to 0.13 nM cAMP.
(§2) EC50 values were determined using Activity Base analysis (ID Business Solution, Limited). The EC50 values for a wide range of cannabinoid agonists generated from this assay were in agreement with the values published in the scientific literature.
A general note: cAMP levels reflect the balance of adenylyl cyclase and phosphodiesterase activity.

Test [2] deals with human CB2 receptors (Homo sapiens (Human), UniProt P34972). Description: functional cAMP assay, CB2. Format: cell-based. The method, then: as §1, §2
Sequence of human CB2 receptors (P34972 whole entry): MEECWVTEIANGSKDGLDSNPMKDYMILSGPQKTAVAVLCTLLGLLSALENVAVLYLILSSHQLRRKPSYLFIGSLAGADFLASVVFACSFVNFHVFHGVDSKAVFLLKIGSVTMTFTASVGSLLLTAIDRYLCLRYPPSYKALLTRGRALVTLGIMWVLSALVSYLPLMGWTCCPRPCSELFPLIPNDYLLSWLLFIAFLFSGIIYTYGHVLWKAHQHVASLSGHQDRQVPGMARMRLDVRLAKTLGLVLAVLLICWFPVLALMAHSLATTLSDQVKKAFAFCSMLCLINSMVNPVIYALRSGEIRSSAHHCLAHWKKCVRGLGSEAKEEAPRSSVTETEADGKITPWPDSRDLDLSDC
[3] abbreviates: functional cAMP assay, CHO cells expressing human CB1, read-out: human CB1 EC50.
[4] abbreviates: functional cAMP assay, CHO cells expressing human CB2, read-out: human CB2 EC50.

Each structure is given as a SMILES string. Read-outs that look alike come from different tables or passages of the source.

Sequence of human CB1 receptors (P21554 whole entry): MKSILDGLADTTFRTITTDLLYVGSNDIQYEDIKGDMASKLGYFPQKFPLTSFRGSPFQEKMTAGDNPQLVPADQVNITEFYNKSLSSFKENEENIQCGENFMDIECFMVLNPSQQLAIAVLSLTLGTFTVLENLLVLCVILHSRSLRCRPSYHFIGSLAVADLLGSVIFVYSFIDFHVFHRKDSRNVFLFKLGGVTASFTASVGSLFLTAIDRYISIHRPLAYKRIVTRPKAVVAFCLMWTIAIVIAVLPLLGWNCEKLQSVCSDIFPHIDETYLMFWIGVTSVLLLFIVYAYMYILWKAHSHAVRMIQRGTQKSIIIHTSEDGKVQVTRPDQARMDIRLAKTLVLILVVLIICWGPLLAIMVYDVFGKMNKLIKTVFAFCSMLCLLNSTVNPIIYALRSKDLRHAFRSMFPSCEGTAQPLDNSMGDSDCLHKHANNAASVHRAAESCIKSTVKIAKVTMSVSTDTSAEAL

Turning to `Cc1nc([C@](C)(NC(=O)c2cnc(N3CC(F)(F)C3)c(OCC3CC3)n2)C2CC2)no1` [Example 87, (−)-6-Cyclopropylmethoxy-5-(3,3-difluoro-azetidin-1-yl)-pyrazine-2-carboxylic acid [1-cyclopropyl-1-(5-methyl-[1,2,4]oxadiazol-3-yl)-ethyl]-amide], the 50% effective concentration (EC50) (commonly the concentration that produces a half-maximal response) in test [1] (setting [3]) is more than 10 µM; in test [2] (setting [4]), 0.0132 µM.

Take `NC(=O)C(CC1CCC1)NC(=O)c1cnc(C2CC2)c(OCC2CC2)n1` (stereo not drawn) [Example 104, 5-Cyclopropyl-6-cyclopropylmethoxy-pyrazine-2-carboxylic acid (1-carbamoyl-2-cyclobutyl-ethyl)-amide]: the figures for the EC50 in test [1] (setting [3]) and in test [2] (setting [4]) were more than 10 µM and 0.0429 µM, respectively.

For the compound `CC(C)C(NC(=O)c1cnc(C2CC2)c(OCC2CC2)n1)C(=O)N(C)C` (stereo not drawn) [Example 92, 5-Cyclopropyl-6-cyclopropylmethoxy-pyrazine-2-carboxylic acid (1-dimethylcarbamoyl-2-methyl-propyl)-amide], the EC50 in test [1] (setting [3]) was more than 10 µM; in test [2] (setting [4]), 0.0086 µM.

Turning to `NC(=O)C1(NC(=O)c2cnc(N3CC(F)(F)C3)c(OCC3CC3)n2)CCCCC1` [Example 89, 6-Cyclopropylmethoxy-5-(3,3-difluoro-azetidin-1-yl)-pyrazine-2-carboxylic acid (1-carbamoyl-cyclohexyl)-amide], the EC50 in test [1] (setting [3]) is more than 10 µM; in test [2] (setting [4]) it was 0.0706 µM.

Take `CC(C)[C@](C)(CO)NC(=O)c1cnc(C2CC2)c(OCC2CC2)n1` [Example 51, 5-Cyclopropyl-6-cyclopropylmethoxy-pyrazine-2-carboxylic acid ((R)-1-hydroxymethyl-1,2-dimethyl-propyl)-amide]: the EC50 was more than 10 µM in test [1] (setting [3]) and 0.137 µM in test [2] (setting [4]).

For the compound `Cc1nc([C@@H](NC(=O)c2cnc(N3CC(F)(F)C3)c(OCC3CC3)n2)C2CC2)no1` (stereo in doubt) [Example 42, 6-Cyclopropylmethoxy-5-(3,3-difluoro-azetidin-1-yl)-pyrazine-2-carboxylic acid [(SR)-cyclopropyl-(5-methyl-[1,2,4]oxadiazol-3-yl)-methyl]-amide], the EC50 in test [1] was more than 10 µM; in test [2], 0.028 µM.

With `COCCC(C)(C)NC(=O)c1cnc(N2CC(F)(F)C2)c(OCC2CC2)n1` [Example 99, 6-Cyclopropylmethoxy-5-(3,3-difluoro-azetidin-1-yl)-pyrazine-2-carboxylic acid (3-methoxy-1,1-dimethyl-propyl)-amide], the concentration giving a half-maximal response (EC50) is more than 10 µM in test [1] (setting [3]) and 0.0103 µM in test [2] (setting [4]).

Consider `Cc1nc(C(C)(C)NC(=O)c2cnc(C3CC3)c(-c3cccc(Cl)c3)n2)no1` [Example 1, 6-(3-Chloro-phenyl)-5-cyclopropyl-pyrazine-2-carboxylic acid [1-methyl-1-(5-methyl-[1,2,4]oxadiazol-3-yl)-ethyl]amide], for which the EC50 in test [1] (setting [3]) was found to be 1.15 µM; in test [2] (setting [4]), 0.0881 µM.

As to `CC(C)[C@@](C)(CO)NC(=O)c1cnc(C2CC2)c(OCC2CC2)n1` [Example 52, 5-Cyclopropyl-6-cyclopropylmethoxy-pyrazine-2-carboxylic acid ((S)-1-hydroxymethyl-1,2-dimethyl-propyl)-amide], the figures for the EC50 in test [1] (setting [3]) and in test [2] (setting [4]) were more than 10 µM and 0.0369 µM, respectively.

Regarding `CC(C)(C)[C@H](NC(=O)c1cnc(C2CC2)c(OCC2CC2)n1)C(=O)O` [Example 44, (S)-2-[(5-Cyclopropyl-6-cyclopropylmethoxy-pyrazine-2-carbonyl)-amino]-3,3-dimethyl-butyric acid], the results for the EC50 in test [1] (setting [3]) and in test [2] (setting [4]) were more than 10 µM and 0.442 µM, respectively.

With `Cc1nc([C@H](NC(=O)c2cnc(N3CC(F)(F)C3)c(OCC3CC3)n2)C2CC2)no1` (stereo in doubt) [Example 43, 6-Cyclopropylmethoxy-5-(3,3-difluoro-azetidin-1-yl)-pyrazine-2-carboxylic acid [(RS)-cyclopropyl-(5-methyl-[1,2,4]oxadiazol-3-yl)-methyl]-amide], the EC50 in test [1] is more than 10 µM; in test [2], 0.0409 µM.

Take `Cc1nc(C2(NC(=O)c3cnc(C4CC4)c(OCC4CC4)n3)CCC2)no1` [Example 12, 5-Cyclopropyl-6-cyclopropylmethoxy-pyrazine-2-carboxylic acid [1-(5-methyl-[1,2,4]oxadiazol-3-yl)-cyclobutyl]-amide]: the EC50 is more than 10 µM in test [1] (setting [3]) and 0.0852 µM in test [2] (setting [4]).

`O=C(N[C@@H](c1ccccn1)C(F)(F)F)c1cnc(N2CC(F)(F)C2)c(OCC2CC2)n1` [Example 48, 6-Cyclopropylmethoxy-5-(3,3-difluoro-azetidin-1-yl)-pyrazine-2-carboxylic acid ((S)-2,2,2-trifluoro-1-pyridin-2-yl-ethyl)-amide]: the half-maximal effective concentration (EC50) was more than 10 µM in test [1] (setting [3]) and 0.0244 µM in test [2] (setting [4]).

As to `O=C(NC(CO)CC1CCC1)c1cnc(C2CC2)c(OCC2CC2)n1` (stereo not drawn) [Example 105, 5-Cyclopropyl-6-cyclopropylmethoxy-pyrazine-2-carboxylic acid (1-cyclobutylmethyl-2-hydroxy-ethyl)-amide], the figures for the EC50 in test [1] (setting [3]) and in test [2] (setting [4]) were more than 10 µM and 0.037 µM, respectively.

`CC(C)C(NC(=O)c1cnc(N2CC(F)(F)C2)c(OCC2CC2)n1)C(N)=O` (stereo not drawn) [Example 88, 6-Cyclopropylmethoxy-5-(3,3-difluoro-azetidin-1-yl)-pyrazine-2-carboxylic acid (1-carbamoyl-2-methyl-propyl)-amide]: the figures for the EC50 in test [1] (setting [3]) and in test [2] (setting [4]) were more than 10 µM and 0.0791 µM, respectively.

Regarding `CCC(C)(CO)NC(=O)c1cnc(C2CC2)c(OCC2CC2)n1` (stereo not drawn) [Example 13, 5-Cyclopropyl-6-cyclopropylmethoxy-pyrazine-2-carboxylic acid (1-hydroxymethyl-1-methyl-propyl)-amide], the values for the concentration giving a half-maximal response (EC50) in test [1] (setting [3]) and in test [2] (setting [4]) were more than 10 µM and 0.0634 µM, respectively.

In the case of `C[C@H](NC(=O)c1cnc(C2CC2)c(OCC2CC2)n1)c1ccccn1` [Example 46, 5-Cyclopropyl-6-cyclopropylmethoxy-pyrazine-2-carboxylic acid ((S)-1-pyridin-2-yl-ethyl)-amide], the results for the EC50 in test [1] (setting [3]) and in test [2] (setting [4]) were more than 10 µM and 0.291 µM, respectively.

As to `COC(=O)[C@H](CC1CC1)NC(=O)c1cnc(N2CC(F)(F)C2)c(OCC2CC2)n1` [Example 36, (S)-3-Cyclopropyl-2-{[6-cyclopropylmethoxy-5-(3,3-difluoro-azetidin-1-yl)-pyrazine-2-carbonyl]-amino}-propionic acid methyl ester], the figures for the half-maximal effective concentration (EC50) in test [1] (setting [3]) and in test [2] (setting [4]) were more than 10 µM and 0.0096 µM, respectively.

Turning to `NC(=O)[C@H](CC1CC1)NC(=O)c1cnc(N2CC(F)(F)C2)c(OCC2CC2)n1` [Example 39, 6-Cyclopropylmethoxy-5-(3,3-difluoro-azetidin-1-yl)-pyrazine-2-carboxylic acid ((S)-1-carbamoyl-2-cyclopropyl-ethyl)-amide], the concentration giving a half-maximal response (EC50) in test [1] (setting [3]) is more than 10 µM; in test [2] (setting [4]), 0.011 µM.

Consider `CC(C)C[C@H](NC(=O)c1cnc(C2CC2)c(OCC2CC2)n1)C(N)=O` [Example 29, 5-Cyclopropyl-6-cyclopropylmethoxy-pyrazine-2-carboxylic acid ((S)-1-carbamoyl-3-methyl-butyl)-amide], for which the results for the concentration for a half-maximal effect (EC50) in test [1] (setting [3]) and in test [2] (setting [4]) were 1.57 µM and 0.0041 µM, respectively.

As for `Cc1nc(C(C)(C)NC(=O)c2cnc(C3CC3)c(OCC3CC3)n2)no1` [Example 45, 5-Cyclopropyl-6-cyclopropylmethoxy-pyrazine-2-carboxylic acid [1-methyl-1-(5-methyl-[1,2,4]oxadiazol-3-yl)-ethyl]-amide], the concentration giving a half-maximal response (EC50) was more than 10 µM in test [1] (setting [3]) and 0.0514 µM in test [2] (setting [4]).

Take `NC(=O)[C@H](Cc1ccccc1)NC(=O)c1cnc(N2CC(F)(F)C2)c(OCC2CC2)n1` [Example 38, 6-Cyclopropylmethoxy-5-(3,3-difluoro-azetidin-1-yl)-pyrazine-2-carboxylic acid ((S)-1-carbamoyl-2-phenyl-ethyl)-amide]: the values for the EC50 in test [1] (setting [3]) and in test [2] (setting [4]) were more than 10 µM and 0.0444 µM, respectively.

In the case of `Cc1nc([C@@H](NC(=O)c2cnc(C3CC3)c(OCC3CC3)n2)C2CC2)no1` (stereo in doubt) [Example 40, 5-Cyclopropyl-6-cyclopropylmethoxy-pyrazine-2-carboxylic acid [(SR)-cyclopropyl-(5-methyl-[1,2,4]oxadiazol-3-yl)-methyl]-amide], the EC50 in test [1] was more than 10 µM; in test [2], 0.0308 µM.

`CCC(CC)(NC(=O)c1cnc(N2CC(F)(F)C2)c(OCC2CC2)n1)C(=O)NC` [Example 50, 6-Cyclopropylmethoxy-5-(3,3-difluoro-azetidin-1-yl)-pyrazine-2-carboxylic acid (1-ethyl-1-methylcarbamoyl-propyl)-amide]: the EC50 is more than 10 µM in test [1] (setting [3]) and 0.0074 µM in test [2] (setting [4]).

Values taken from patent US9403808B2, “Pyrazine derivatives” (Hoffmann-La Roche Inc., priority 2011, dated 2016).
